“Also recorded” adds a separate entry of the source. Blank lines part the entries; values can stand above or below the molecule they belong to.
Key:
[1] = target: T1, integrin αvβ3 in its active conformation (Homo sapiens, UniProt P05106+P06756); test: Specificity of WOW-1 antibody for active integrin αvβ3 in control fibroblasts by flow cytometry; assay type: cell-based; details: 10 mM EDTA, 2 mM MnCl2
T1 construct: endogenous in cells; host or cells: control fibroblasts (read as primary human dermal fibroblasts from healthy controls)
Description: For histograms, FlowJo software divides all events into 256 “bins,” which are numerical ranges for the parameter on the x-axis. The percent of maximum (yaxis) is the number of cells in each bin divided by the number of cells in the bin that contains the largest number of cells. Gating for live cells was based on staining with the LIVE/DEAD® Fixable Dead Cell Stain Kit (Invitrogen, cat#L34955). All staining was performed with fluorophore-conjugated primary and isotype control antibodies. All antibodies were either purchased as fluorochrome conjugates or conjugated via amine-based Alexa Fluor antibody labeling kits (cat#A-20181, A20187, A-20185, A-20186, Invitrogen). Mouse and human active αvβ3 was detected fluorophore-conjugated WOW-1 antibody (a gift from Dr. Sanford Shattil). 10 mM Ethylenediaminetetraacetic acid (EDTA) and 2 mM MnCl2 were used as negative and positive controls for αvβ3 activation in flow cytometry experiments (FIG. 20B). Integrin αvβ5, a subtype known to react with the WOW-1 antibody, was monitored in mouse and human cells with a specific antibody (cat#LS-C36943, Lifespan Biosciences).

[2] = test system: Fbn1D1545E/+ and Fbn1W1572C/+ mice (SSS mouse models); test: Histology (Masson's trichrome) and immunofluorescence of back skin of treated SSS mice; assay type: in vivo; details: RDEA119 25 mg/kg twice daily oral gavage, 8 weeks
Description: (§1) All antibodies used to treat mice or cells were azide-free. Male mice were treated with β1 integrin activating antibody (β1aAb, Rat Clone 9EG7, BD Biosciences, special-ordered >98% pure and azide-free) or an isotype-matched control (Rat IgG2a, κ, special-ordered >98% pure and azide-free, BD Biosciences) by intraperitoneal injection at 2 mg/kg every five days for twelve weeks, beginning at one month of age. Complete blood cell counts were performed to exclude pancytopenia in β1aAb-treated animals (FIG. 20A). For the TGFβ-Neutralizing trial, three-month-old male mice were treated with pan-specific TGFβ-Neutralizing antibody (Mouse Clone 1D11, catalog #MAB1835, R&D) or an isotype control (Mouse IgG1, Clone 11711, cat#MAB002, R&D) by intraperitoneal injection at 10 mg/kg every other day for twelve weeks.
RDEA119 was generously provided by Craig J. Thomas, Samarjit Patnaik, and Juan J. Marugan (National Institutes of Health Chemical Genomics Center, Rockville, Md., USA). […]
For tissue analysis, animals were euthanized through inhalational halothane (Sigma) or anesthetized with isofluorane. […] Dermal and subcutaneous fat thickness was measured using high-powered fields as described previously. […] Active αvβ3 was detected using the WOW-1 antibody (a gift from Dr. Sanford Shattil) and an anti-mouse Alexa Fluor-594 F(ab′)2 fragment secondary (Invitrogen cat#A11020). […]

[3] = test system: Fbn1D1545E/+ and Fbn1W1572C/+ mice (SSS mouse models); test: In vivo drug treatment of SSS mouse models: clinical stiffness score and stretched skin area/total surface area ratio; details: RDEA119 25 mg/kg twice daily by oral gavage, 8 weeks from 1 month of age
Description: as §1
RDEA119 was generously provided by Craig J. Thomas, Samarjit Patnaik, and Juan J. Marugan (National Institutes of Health Chemical Genomics Center, Rockville, Md., USA). RDEA119 was reconstituted in 10% 2-hydroxypropyl-betacyclodextrin (Sigma-Aldrich) dissolved in PBS, and administered twice daily by oral gavage at a dose of 25 mg/kg. […]
A clinical stiffness score was assigned by five blinded observers. […] Mice were assessed in random order. […] Early in the course of studies, the same mice were assessed by the same observer on a different day. […]

SSc fibroblasts [4] = test: In vitro TGFβ1 stimulation of SSc dermal fibroblasts, Western blotting of pSMAD3 and pERK1/2; assay type: cell-based, human
Description: (§2) All cells were counted at splitting and all treatments were performed at 70% confluency. Cells were serum starved 48 hours prior to stimulation with 2 ng/mL recombinant TGFβ1 (cat#240-B-010, R&D). When TGFβ1 or vehicle was added, cell culture dishes were immediately rocked on the same rocker three times at 5% CO2, 37° to control for mechanical MAPK activation. Before lysate harvest, cells were washed with pre-warmed (42°) 1×PBS (Gibco®). All antibody treatments of human fibroblasts were added during starvation 48 hours before TGFβ1 stimulation while inhibitors SD208 (1 μM) and UO126 (10 μM) (cat#s 616456 and 662005, EMD Millipore) were added 6 hours prior to stimulation. Antibodies used in vitro were mouse IgG1 (0.2 mg/mL, Clone P3.6.2.8.1, cat#16-4714-81, eBiosciences), IgG2a (0.2 mg/mL, Clone eBM2a, cat#16-4724, eBiosciences), αvβ3-blocking (30 μg/mL, Clone LM609, cat#MAB1976Z, Millipore), β1-activating (7 μg/mL, Clone TS2/16, cat#14-0299, eBiosciences), and β1-blocking (0.2 mg/mL, Clone P4C10, cat#MAB1987Z, Millipore) antibodies.
Before lysate harvest, cells were washed with pre-warmed ([…]) 1×PBS (Gibco®). […] The relative intensities were measured using LiCor Odyssey software. […]

SSc fibroblasts [5] = test: qPCR of miR-29a and collagen mRNAs in cultured SSc fibroblasts; assay type: cell-based, human; details: inhibitors SD208 (1 μM), U0126 (10 μM)
Description: Primary human dermal fibroblasts (HDFs) were derived from skin biopsies from 5 patients with active diffuse systemic sclerosis and 6 healthy controls. Biopsies were taken from the forearm and cultured as previously described. All experiments were performed in cell lines at low (<5) passage. Primary mouse embryonic fibroblasts (MEFs) were derived from E13.5 embryos as described previously. Murine plasmacytoid dendritic cells (pDCs) were isolated from the spleens of wild-type C57B16/J mice using the Plasmacytoid Dendritic Cell Isolation Kit II (cat#130-092-786, Miltenyi Biotec) and a midiMACS™ Separator (cat#130-042-302, Miltenyi Biotec) according to the manufacturer's instructions. The pDC-containing cell suspensions routinely had greater than 95% purity, as detected by flow cytometry.
as §2
Total RNA was isolated from cultured cells or tissue using Trizol (Invitrogen) according to the manufacturer's protocol. Quantitative PCR for miR-29a and 18S rRNA was performed using pre-designed Taqman primers and probes (ABI) according to manufacturer's instructions. Relative quantification for each transcript was obtained by normalizing against 18S transcript abundance according to the formula 2^−Ct/2^−Ct(18S).

T1 sequence (P06756 31-889 limits assumed): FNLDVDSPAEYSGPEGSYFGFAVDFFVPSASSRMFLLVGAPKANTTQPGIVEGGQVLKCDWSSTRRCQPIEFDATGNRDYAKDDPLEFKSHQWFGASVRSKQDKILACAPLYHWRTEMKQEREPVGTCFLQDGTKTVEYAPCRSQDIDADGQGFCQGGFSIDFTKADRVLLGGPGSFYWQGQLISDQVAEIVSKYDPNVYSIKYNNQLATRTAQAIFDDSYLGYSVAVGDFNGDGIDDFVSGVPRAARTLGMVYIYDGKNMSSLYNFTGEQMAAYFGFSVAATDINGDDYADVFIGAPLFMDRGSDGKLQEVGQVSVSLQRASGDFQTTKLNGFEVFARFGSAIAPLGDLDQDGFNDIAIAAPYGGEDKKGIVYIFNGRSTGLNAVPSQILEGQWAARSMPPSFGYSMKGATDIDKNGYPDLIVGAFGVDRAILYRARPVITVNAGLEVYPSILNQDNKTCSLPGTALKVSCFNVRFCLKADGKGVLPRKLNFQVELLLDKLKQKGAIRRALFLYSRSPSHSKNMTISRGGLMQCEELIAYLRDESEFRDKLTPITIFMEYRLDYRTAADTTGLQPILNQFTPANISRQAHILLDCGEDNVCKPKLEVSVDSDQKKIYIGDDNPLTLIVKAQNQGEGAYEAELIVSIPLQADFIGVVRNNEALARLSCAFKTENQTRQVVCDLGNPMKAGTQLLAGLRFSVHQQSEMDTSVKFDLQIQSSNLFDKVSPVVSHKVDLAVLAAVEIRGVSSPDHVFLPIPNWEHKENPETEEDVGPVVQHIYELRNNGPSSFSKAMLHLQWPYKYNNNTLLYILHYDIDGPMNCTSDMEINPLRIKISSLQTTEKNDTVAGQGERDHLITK
T1 sequence (P06756 891-1048 partner limits assumed): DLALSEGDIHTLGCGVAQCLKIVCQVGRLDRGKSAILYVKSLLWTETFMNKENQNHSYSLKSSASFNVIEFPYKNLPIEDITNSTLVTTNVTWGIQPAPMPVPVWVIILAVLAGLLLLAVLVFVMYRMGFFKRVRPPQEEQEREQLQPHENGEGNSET
T1 sequence (P05106 27-788): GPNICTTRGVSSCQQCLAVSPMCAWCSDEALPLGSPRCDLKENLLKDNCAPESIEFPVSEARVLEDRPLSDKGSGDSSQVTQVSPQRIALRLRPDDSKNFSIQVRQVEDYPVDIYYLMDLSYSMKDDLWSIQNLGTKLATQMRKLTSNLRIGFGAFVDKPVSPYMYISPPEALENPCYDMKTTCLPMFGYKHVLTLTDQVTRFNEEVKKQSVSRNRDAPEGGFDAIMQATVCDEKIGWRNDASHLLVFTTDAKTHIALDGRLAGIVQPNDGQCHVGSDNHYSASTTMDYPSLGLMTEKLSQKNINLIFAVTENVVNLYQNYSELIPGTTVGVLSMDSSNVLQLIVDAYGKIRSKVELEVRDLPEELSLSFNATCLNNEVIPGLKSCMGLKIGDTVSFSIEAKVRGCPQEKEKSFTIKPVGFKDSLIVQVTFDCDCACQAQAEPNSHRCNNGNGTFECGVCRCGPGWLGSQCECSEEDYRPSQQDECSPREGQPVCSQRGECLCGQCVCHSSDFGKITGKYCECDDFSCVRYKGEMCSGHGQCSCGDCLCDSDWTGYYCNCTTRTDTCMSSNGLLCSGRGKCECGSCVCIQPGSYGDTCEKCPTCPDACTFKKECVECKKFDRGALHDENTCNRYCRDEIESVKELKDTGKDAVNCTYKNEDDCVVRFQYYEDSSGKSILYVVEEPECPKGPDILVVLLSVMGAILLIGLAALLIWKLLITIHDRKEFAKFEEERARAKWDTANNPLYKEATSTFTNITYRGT

WOW-1 immunoreactivity [1]: reduced immunoreactivity
Compound: O=C(O)CN(CCN(CC(=O)O)CC(=O)O)CC(=O)O [EDTA, Ethylenediaminetetraacetic acid]

WOW-1 immunoreactivity [1]: increased immunoreactivity
Compound: [Cl][Mn][Cl] [MnCl2]

Compound: COc1cc(F)c(F)c(Nc2ccc(I)cc2F)c1NS(=O)(=O)C1(C[C@H](O)CO)CC1 [RDEA119]
dermal collagen accumulation [2]: prevents | loss of subcutaneous fat [2]: prevents | skin stiffness [3]: prevents skin stiffness

Compound: Fc1ccc(Cl)cc1-c1nc(Nc2ccncc2)c2nccnc2n1 [SD208]
ERK1/2 activation (pERK1/2) in response to TGFβ1 (SSc fibroblasts [4]; 2 ng/mL TGFβ1, 5 minutes, antibodies added 48 hours before, SD208 1 μM 6 hours prior): inhibited; also recorded: sensitive | Smad3 phosphorylation (pSMAD3) in response to TGFβ1 (SSc fibroblasts [4]; 2 ng/mL TGFβ1, SD208 1 μM 6 hours prior): sensitive | expression of miR-29a (SSc fibroblasts [5]): increased expression of miR-29a, this finding did not reach significance; also recorded: normalized | expression of type IA2 and III collagen genes (SSc fibroblasts [5]): normalized

Compound: N#CC(=C(/N)Sc1ccccc1N)/C(C#N)=C(\N)Sc1ccccc1N [U0126]
expression of miR-29a (SSc fibroblasts [5]): increased miR-29a levels; also recorded: increases miR-29a expression | expression of type IA2 and III collagen genes (SSc fibroblasts [5]): reduced collagen expression; also recorded: reduces type IA2 and III collagen expression

Reference: patent US20160222122A1, “INTEGRIN-MODULATING THERAPIES FOR TREATING FIBROTIC DISEASE” (The Johns Hopkins University, priority 2013, published 2016)
